Structures can show the parent of a compound that is named as a salt.
Target: T1, human mGluR2 (Homo sapiens, UniProt Q14416)
T1 construct: expressed in transfected cells; host or cells: HEK293 clonal line
Test: mGluR2 cAMP assay
Format: cell-based
Details: clonally expressed human mGluR2 in HEK293; 1 μM forskolin, 1 μM LY-341495, 30 min; CISBIO cAMP kit; read-out: EC50 (nM), activity in mGluR2 cAMP assay
Method: On the day of the assay, media was removed, cells washed with PBS, cells harvested and pelleted by centrifugation. Cell pellets were resuspended in stimulation buffer without forskolin and counted. […] A standard curve was created using a top concentration of cAMP of 1 μM in the stimulation buffer, 1:3 dilutions over 14 points in the absence of cells. […] In house software converted the fluorescence value ratios to units of cAMP concentration, which is then used to calculate % inhibition for each test compound. MGluR2 cAMP Assay Materials and Methods. […] Buffer without forskolin was used as a negative control. Solutions of D2 and cryptate detection reagents from the CISBIO dynamic cAMP kit (62AM4PEJ) were diluted 1:40 in lysis buffer. Lysis buffer consisted of 50 mM Phosphate Buffer pH 7.0, 800 mM Potassium Fluoride, 0.2% BSA, and 1.0% Triton. Assay reaction was terminated by addition of detection reagents in lysis buffer. One hour later, plates were read on a PE Viewlux. Data was extracted, and concentration response curves generated by fitting the data to a standard 4 parameter logistic equation from which EC50 values were determined.

T1 sequence (Q14416 19-872): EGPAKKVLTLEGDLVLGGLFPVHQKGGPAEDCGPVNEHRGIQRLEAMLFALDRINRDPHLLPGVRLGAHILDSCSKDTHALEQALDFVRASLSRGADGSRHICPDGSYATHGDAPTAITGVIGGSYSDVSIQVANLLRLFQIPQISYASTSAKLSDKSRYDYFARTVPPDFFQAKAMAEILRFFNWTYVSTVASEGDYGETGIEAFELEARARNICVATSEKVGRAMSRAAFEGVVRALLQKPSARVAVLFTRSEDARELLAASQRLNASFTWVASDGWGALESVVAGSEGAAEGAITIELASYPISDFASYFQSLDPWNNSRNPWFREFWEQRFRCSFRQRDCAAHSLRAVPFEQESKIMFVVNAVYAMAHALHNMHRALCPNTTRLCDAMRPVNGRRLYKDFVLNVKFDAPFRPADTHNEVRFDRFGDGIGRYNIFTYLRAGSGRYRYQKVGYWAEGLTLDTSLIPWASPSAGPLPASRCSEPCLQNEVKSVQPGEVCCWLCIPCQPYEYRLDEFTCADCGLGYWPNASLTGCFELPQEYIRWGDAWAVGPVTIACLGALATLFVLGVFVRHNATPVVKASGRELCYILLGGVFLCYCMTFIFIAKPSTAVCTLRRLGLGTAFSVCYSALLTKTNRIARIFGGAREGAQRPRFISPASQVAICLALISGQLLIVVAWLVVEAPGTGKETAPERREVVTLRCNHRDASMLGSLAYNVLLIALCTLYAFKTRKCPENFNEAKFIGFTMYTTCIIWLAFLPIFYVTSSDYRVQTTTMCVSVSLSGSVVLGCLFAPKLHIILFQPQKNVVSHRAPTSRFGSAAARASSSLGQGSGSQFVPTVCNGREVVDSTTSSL

EC50 [nM] | SMILES
2.6 | Fc1ccc(C2CC2COc2ccn3c(CC4CC4)nnc3c2C(F)(F)F)cc1 (single isomer, unassigned) [Example 78]
1.1 | Fc1ccc([C@@H]2C[C@H]2COc2ccn3c(CC4CC4)nnc3c2C(F)(F)F)cc1 (single isomer, unassigned) [Example 79]
1.8 | FC(F)(F)c1c(OCC2(c3ccccc3)CCCCC2)ccn2c(CC3CC3)nnc12 [Example 1, 3-(Cyclopropylmethyl)-7-((1-phenylcyclohexyl)methoxy)-8-(trifluoromethyl)-[1,2,4]triazolo[4,3-a]pyridine]
11 | CC(C)(COc1ccn2c(CC3CC3)nnc2c1C(F)(F)F)c1ccc(F)cc1 [Example 6, 3-(Cyclopropylmethyl)-7-(2-(4-fluorophenyl)-2-methylpropoxy)-8-(trifluoromethyl)-[1,2,4]triazolo[4,3-a]pyridine]
11 | CC(C)(COc1ccn2c(CC3CC3)nnc2c1C(F)(F)F)Oc1ccc(F)cc1 [Example 8, 3-(Cyclopropylmethyl)-7-(2-(4-fluorophenoxy)-2-methylpropoxy)-8-(trifluoromethyl)-[1,2,4]triazolo[4,3-a]pyridine]
15 | CC(C)(COc1ccn2c(CC3CC3)nnc2c1C(F)(F)F)Oc1ccc(F)cc1F [Example 16, 3-(Cyclopropylmethyl)-7-(2-(2,4-difluorophenoxy)-2-methylpropoxy)-8-(trifluoromethyl)-[1,2,4]triazolo[4,3-a]pyridine]
1.4 | N#C[C@]1(c2ccc(F)cc2)CC[C@H](Oc2ccn3c(CC4CC4)nnc3c2C(F)(F)F)CC1 [Example 17, (1s,4s)-4-(3-(Cyclopropylmethyl)-8-(trifluoromethyl)-[1,2,4]triazolo[4,3-a]pyridin-7-yloxy)-1-(4-fluorophenyl)cyclohexanecarbonitrile]
0.3 | CO[C@]1(c2ccc(F)cc2)CC[C@H](Oc2ccn3c(CC4CC4)nnc3c2C(F)(F)F)CC1 [Example 19, 3-(Cyclopropylmethyl)-7-((1s,4s)-4-(4-fluorophenyl)-4-methoxycyclohexyloxy)-8-(trifluoromethyl)-[1,2,4]triazolo[4,3-a]pyridine]
0.4 | FC(F)(F)c1c(O[C@H]2CC[C@H](c3ccccc3)CC2)ccn2c(CC3CC3)nnc12 [Example 20, 3-(Cyclopropylmethyl)-7-((1r,4r)-4-phenylcyclohexyloxy)-8-(trifluoromethyl)-[1,2,4]triazolo[4,3-a]pyridine]
0.8 | O[C@]1(c2ccc(F)c(F)c2)CC[C@H](Oc2ccn3c(CC4CC4)nnc3c2C(F)(F)F)CC1 [Example 26, (1s,4s)-4-(3-(Cyclopropylmethyl)-8-(trifluoromethyl)-[1,2,4]triazolo[4,3-a]pyridin-7-yloxy)-1-(3,4-difluorophenyl)cyclohexanol, TFA salt]
0.7 | CO[C@]1(c2ccc(F)c(F)c2)CC[C@H](Oc2ccn3c(CC4CC4)nnc3c2C(F)(F)F)CC1 [Example 28, 3-(Cyclopropylmethyl)-7-((1s,4s)-4-(3,4-difluorophenyl)-4-methoxycyclohexyloxy)-8-(trifluoromethyl)-[1,2,4]triazolo[4,3-a]pyridine]
13 | FC(F)(F)c1c(OCC2(c3ccc(Cl)cc3)CC2)ccn2c(CC3CC3)nnc12 [Example 29, 7-((1-(4-Chlorophenyl)cyclopropyl)methoxy)-3-(cyclopropylmethyl)-8-(trifluoromethyl)-[1,2,4]triazolo[4,3-a]pyridine]
16 | Fc1ccc(C2(COc3ccn4c(CC5CC5)nnc4c3C(F)(F)F)CC2)cc1 [Example 30, 3-(Cyclopropylmethyl)-7-((1-(4-fluorophenyl)cyclopropyl)methoxy)-8-(trifluoromethyl)-[1,2,4]triazolo[4,3-a]pyridine]
4 | FC(F)(F)c1c(OC[C@@H]2C[C@H]2c2ccc(Cl)cc2)ccn2c(CC3CC3)nnc12 [Example 33, 7-(((1R,2R)-2-(4-Chlorophenyl)cyclopropyl)methoxy)-3-(cyclopropylmethyl)-8-(trifluoromethyl)-[1,2,4]triazolo[4,3-a]pyridine]
0.5 | N#C[C@]1(c2cccc(F)c2)C[C@H](Oc2ccn3c(CC4CC4)nnc3c2C(F)(F)F)C1 [Example 46, (1s,3s)-3-(3-(Cyclopropylmethyl)-8-(trifluoromethyl)-[1,2,4]triazolo[4,3-a]pyridin-7-yloxy)-1-(3-fluorophenyl)cyclobutanecarbonitrile]
2.7 | N#C[C@]1(c2ccc(F)cc2)C[C@H](Oc2ccn3c(CC4CC4)nnc3c2C(F)(F)F)C1 [Example 50, (1s,3s)-3-(3-(Cyclopropylmethyl)-8-(trifluoromethyl)-[1,2,4]triazolo[4,3-a]pyridin-7-yloxy)-1-(4-fluorophenyl)cyclobutanecarbonitrile]
43 | Fc1ccc(C2(COc3ccn4c(CC5CC5)nnc4c3C(F)(F)F)CC2)c(F)c1 [Example 51, 3-(Cyclopropylmethyl)-7-((1-(2,4-difluorophenyl)cyclopropyl)methoxy)-8-(trifluoromethyl)-[1,2,4]triazolo[4,3-a]pyridine]
0.3 | COc1ccccc1[C@]1(C#N)C[C@@H](Oc2ccn3c(CC4CC4)nnc3c2C(F)(F)F)C1 [Example 53, (1s,3s)-3-(3-(Cyclopropylmethyl)-8-(trifluoromethyl)-[1,2,4]triazolo[4,3-a]pyridin-7-yloxy)-1-(2-methoxyphenyl)cyclobutanecarbonitrile]

The next lines start with the compound.

SMILES | EC50 [nM]
CO[C@]1(c2ccc(F)cc2)CC[C@H](Oc2ccn3c(C4CC4(F)F)nnc3c2C(F)(F)F)CC1 (single isomer, unassigned) [Example 87, TFA salt] | 61
CO[C@]1(c2ccc(F)cc2)CC[C@H](Oc2ccn3c(C4CC4(F)F)nnc3c2C(F)(F)F)CC1 (single isomer, unassigned) [Example 88, TFA salt] | 3.1
CC(C)(COc1ccn2c(CC3CC3)nnc2c1C(F)(F)F)c1ccc(Cl)cc1 [Example 2, 7-(2-(4-Chlorophenyl)-2-methylpropoxy)-3-(cyclopropylmethyl)-8-(trifluoromethyl)-[1,2,4]triazolo[4,3-a]pyridine] | 5.5
N#Cc1c(OC[C@H]2C[C@@H]2c2ccc(F)cc2)ccn2c(CC3CC3)nnc12 [Example 3, 3-(Cyclopropylmethyl)-7-(((1S,2S)-2-(4-fluorophenyl)cyclopropyl)methoxy)-[1,2,4]triazolo[4,3-a]pyridine-8-carbonitrile] | 11
CC(C)(COc1ccn2c(CC(F)(F)F)nnc2c1C(F)(F)F)c1ccc(Cl)cc1 [Example 7, 7-(2-(4-Chlorophenyl)-2-methylpropoxy)-3-(2,2,2-trifluoroethyl)-8-(trifluoromethyl)-[1,2,4]triazolo[4,3-a]pyridine] | 13
CC(C)(COc1ccn2c(CC(F)(F)F)nnc2c1C(F)(F)F)Oc1ccc(F)cc1 [Example 11, 7-(2-(4-Fluorophenoxy)-2-methylpropoxy)-3-(2,2,2-trifluoroethyl)-8-(trifluoromethyl)-[1,2,4]triazolo[4,3-a]pyridine] | 18
CC(C)(COc1ccn2c(CC3CC3)nnc2c1C(F)(F)F)Oc1ccc(Cl)cc1 [Example 13, 7-(2-(4-Chlorophenoxy)-2-methylpropoxy)-3-(cyclopropylmethyl)-8-(trifluoromethyl)-[1,2,4]triazolo[4,3-a]pyridine] | 13
CCOCc1nnc2c(C(F)(F)F)c(OCC(C)(C)Oc3ccc(Cl)cc3)ccn12 [Example 18, 7-(2-(4-Chlorophenoxy)-2-methylpropoxy)-3-(ethoxymethyl)-8-(trifluoromethyl)-[1,2,4]triazolo[4,3-a]pyridine] | 5.9
CC(C)(COc1ccn2c(COCC(F)(F)F)nnc2c1C(F)(F)F)Oc1ccc(Cl)cc1 [Example 22, 7-(2-(4-Chlorophenoxy)-2-methylpropoxy)-3-((2,2,2-trifluoroethoxy)methyl)-8-(trifluoromethyl)-[1,2,4]triazolo[4,3-a]pyridine, TFA salt] | 4.9
COCc1nnc2c(C(F)(F)F)c(OCC(C)(C)Oc3ccc(Cl)cc3)ccn12 [Example 23, 7-(2-(4-Chlorophenoxy)-2-methylpropoxy)-3-(methoxymethyl)-8-(trifluoromethyl)-[1,2,4]triazolo[4,3-a]pyridine, TFA salt] | 120
FC(F)(F)COCc1nnc2c(C(F)(F)F)c(O[C@H]3CC[C@H](c4ccccc4)CC3)ccn12 [Example 27, 7-((1r,4r)-4-Phenylcyclohexyloxy)-3-((2,2,2-trifluoroethoxy)methyl)-8-(trifluoromethyl)-[1,2,4]triazolo[4,3-a]pyridine] | 0.6
FC(F)(F)c1c(OC[C@H]2C[C@@H]2c2ccc(Cl)cc2)ccn2c(CC3CC3)nnc12 [Example 34, 7-(((1S,2S)-2-(4-Chlorophenyl)cyclopropyl)methoxy)-3-(cyclopropylmethyl)-8-(trifluoromethyl)-[1,2,4]triazolo[4,3-a]pyridine] | 1.6
Fc1ccc([C@H]2C[C@@H]2COc2ccn3c(CC(F)(F)F)nnc3c2C(F)(F)F)cc1 [Example 52, 7-(((1S,2S)-2-(4-Fluorophenyl)cyclopropyl)methoxy)-3-(2,2,2-trifluoroethyl)-8-(trifluoromethyl)-[1,2,4]triazolo[4,3-a]pyridine] | 1.6
